Measured values from patent publication US9980943B2, “Methods of treating muscular dystrophy” (BOARD OF REGENTS OF THE NEVADA SYSTEM OF HIGHER EDUCATION, …, priority 2013, dated 2018).

Columns and labels:
Format in all cases: cell-based, mouse
[1] = system: β-galactosidase in CMV-LacZ C2C12 myotubes; experiment: CMV-LacZ secondary screen in C2C12 myotubes (β-Gal stabilizing assay); settings: for CMV-LACZ in Myotubes, value relative to DMSO: SU9516 analogs, C2C12 CMV-LacZ, N=2; for CMV-LACZ in Myotubes, signal relative to DMSO: C2C12 CMV-LacZ myotubes, fold relative to DMSO
Summary of the method: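 First, C2C12 myoblasts were transfected with a linearized CMV-LACZ vector and clonal lines selected by FDG β-gal assay. Then cells were exposed to compounds at 0.5, 1, 5, 10, 20 and 40 μM in 96-well format, two replicates each, and β-gal measured.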

[2] = system: α7 integrin (LacZ reporter in α7+/LacZ myotubes); experiment: Myotube α7 integrin FDG assay (Burkin assay in myotubes, 96-well); settings: for Burkin Assay in Myotubes, value relative to DMSO: SU9516 analogs, 96-well, N=3-6
[3] = system: β-galactosidase in CMV-LacZ C2C12 myoblasts; experiment: CMV-LacZ secondary screen in C2C12 myoblasts (β-Gal stabilizing assay); settings: for CMV-LACZ in Myoblasts, value relative to DMSO: SU9516 analogs, C2C12 CMV-LacZ, N=2; for CMV-LACZ in Myoblasts (β-galactosidase activity relative to DMSO): CMV-LacZ C2C12 myoblasts
Summary of the method: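 A secondary screen identifies compounds that stabilize β-gal independently of the native promoter, using CMV-LacZ C2C12 cells. Curves span 0.5–40 μM at six levels, in duplicate.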

[4] = system: α7 integrin (LacZ reporter in α7βgal+/− myoblasts); experiment: Myoblast α7+/LacZ integrin FDG assay (Burkin assay in myoblasts, 96-well); settings: for Burkin Assay in Myoblasts, signal relative to DMSO: α7+/LacZ myoblasts, 96-well
[5] = Mus musculus, Myoblast, 48 h, read-out: Burkin Assay in Myoblasts, value relative to DMSO

SMILES: O=C1Nc2ccccc2/C1=C/c1c[nH]cn1 [MLS000327715-01]
- CMV-LACZ in Myotubes, value relative to DMSO ([1]; 0.5 uM): 1.1762
- CMV-LACZ in Myotubes, value relative to DMSO ([1]; 1 uM): 1.0562
- CMV-LACZ in Myotubes, value relative to DMSO ([1]; 5 uM): 1.1289
- CMV-LACZ in Myotubes, value relative to DMSO ([1]; 10 uM): 0.9983
- CMV-LACZ in Myotubes, value relative to DMSO ([1]; 20 uM): 1.2200
- CMV-LACZ in Myotubes, value relative to DMSO ([1]; 40 uM): 1.4871
- Burkin Assay in Myotubes, value relative to DMSO ([2]; 0.5 uM): 0.8838
- Burkin Assay in Myotubes, value relative to DMSO ([2]; 1 uM): 1.025
- Burkin Assay in Myotubes, value relative to DMSO ([2]; 5 uM): 1.302
- Burkin Assay in Myotubes, value relative to DMSO ([2]; 10 uM): 1.115
- Burkin Assay in Myotubes, value relative to DMSO ([2]; 20 uM): 1.192
- Burkin Assay in Myotubes, value relative to DMSO ([2]; 40 uM): 1.119
- CMV-LACZ in Myoblasts, value relative to DMSO ([3]; 0.5 uM): 1.2294
- CMV-LACZ in Myoblasts, value relative to DMSO ([3]; 1 uM): 1.1731
- CMV-LACZ in Myoblasts, value relative to DMSO ([3]; 5 uM): 0.9664
- CMV-LACZ in Myoblasts, value relative to DMSO ([3]; 10 uM): 1.0060
- CMV-LACZ in Myoblasts, value relative to DMSO ([3]; 20 uM): 1.3181
- CMV-LACZ in Myoblasts, value relative to DMSO ([3]; 40 uM): 1.0648
- fold induction at 0.5 µM [4, 5]: 1.38
- fold induction at 1 µM [4, 5]: 1.09
- fold induction at 5 µM [4, 5]: 1.15
- fold induction at 10 µM [4, 5]: 1.03
- fold induction at 20 µM [4, 5]: 0.902
- fold induction at 40 µM [4, 5]: 0.578

SMILES: CCOC(=O)c1sc(=N)n(-c2ccc(OC)cc2)c1C [MLS000090135-01]
- CMV-LACZ in Myotubes, signal relative to DMSO ([1]; 0.5 uM): 1.0155
- CMV-LACZ in Myotubes, signal relative to DMSO ([1]; 1 uM): 1.1036
- CMV-LACZ in Myotubes, signal relative to DMSO ([1]; 5 uM): 0.7503
- CMV-LACZ in Myotubes, signal relative to DMSO ([1]; 10 uM): 1.0114
- CMV-LACZ in Myotubes, signal relative to DMSO ([1]; 20 uM): 1.1100
- CMV-LACZ in Myotubes, signal relative to DMSO ([1]; 40 uM): 1.1840
- Burkin Assay in Myotubes, α7 integrin LacZ reporter signal relative to DMSO ([2]; 0.5 uM): 1.042
- Burkin Assay in Myotubes, α7 integrin LacZ reporter signal relative to DMSO ([2]; 1 uM): 0.9598
- Burkin Assay in Myotubes, α7 integrin LacZ reporter signal relative to DMSO ([2]; 5 uM): 0.8747
- Burkin Assay in Myotubes, α7 integrin LacZ reporter signal relative to DMSO ([2]; 10 uM): 0.9078
- Burkin Assay in Myotubes, α7 integrin LacZ reporter signal relative to DMSO ([2]; 20 uM): 0.8015
- Burkin Assay in Myotubes, α7 integrin LacZ reporter signal relative to DMSO ([2]; 40 uM): 0.8215
- CMV-LACZ in Myoblasts (β-galactosidase activity relative to DMSO) ([3]; 0.5 uM): 1.0896
- CMV-LACZ in Myoblasts (β-galactosidase activity relative to DMSO) ([3]; 1 uM): 0.9421
- CMV-LACZ in Myoblasts (β-galactosidase activity relative to DMSO) ([3]; 5 uM): 0.9731
- CMV-LACZ in Myoblasts (β-galactosidase activity relative to DMSO) ([3]; 10 uM): 0.9296
- CMV-LACZ in Myoblasts (β-galactosidase activity relative to DMSO) ([3]; 20 uM): 0.6017
- CMV-LACZ in Myoblasts (β-galactosidase activity relative to DMSO) ([3]; 40 uM): 0.3653
- Burkin Assay in Myoblasts, signal relative to DMSO ([4]; 0.5 uM): 1.227
- Burkin Assay in Myoblasts, signal relative to DMSO ([4]; 1 uM): 1.166
- Burkin Assay in Myoblasts, signal relative to DMSO ([4]; 5 uM): 0.988
- Burkin Assay in Myoblasts, signal relative to DMSO ([4]; 10 uM): 1.018
- Burkin Assay in Myoblasts, signal relative to DMSO ([4]; 20 uM): 0.6029
- Burkin Assay in Myoblasts, signal relative to DMSO ([4]; 40 uM): 0.3956
